A value given as a limit tells only on which side of the number the result lay.

Broadly, the EC50 is the concentration needed to bring the measured effect to its halfway point.

The test system of one assay is SARS-CoV-2 strain USA-WA1/2020. As to the kind of experiment: microbe, parasite or virus in culture. In kind it is cell-based. As to conditions: Severe acute respiratory syndrome coronavirus 2, HeLa-ACE2, 24 h, HeLa-ACE2 cells, SARS-CoV-2 infection, 24 h; given as a bound, not a class symbol; read-out: EC50, uM (Hela).
`CC(C)(C)[C@H](NC(=O)NC1CC1)C(=O)N1C[C@H]2[C@@H]([C@H]1C(=O)N[C@@H](C[C@@H]1CCNC1=O)C(=O)COC(F)(F)F)C2(C)C` [Compound 634, (1R,2S,5S)-3-((S)-2-(3-cyclopropylureido)-3,3-dimethylbutanoyl)-6,6-dimethyl-N-((S)-3-oxo-1-((S)-2-oxopyrrolidin-3-yl)-4-(trifluoromethoxy)butan-2-yl)-3-azabicyclo[3.1.0]hexane-2-carboxamide]: the 50% effective concentration (EC50) was greater than 1 µM.

Still in this assay, the particulars now being: Severe acute respiratory syndrome coronavirus 2, HeLa-ACE2, 24 h, HeLa-ACE2 cells, SARS-CoV-2 infection, 24 h; read-out: EC50, uM (Hela).
Consider `CC(C)(C)c1ccccc1NC(=O)C(=O)N1C[C@@H]2CCC[C@@H]2[C@H]1C(=O)N[C@@H](C[C@@H]1CCNC1=O)C(=O)COC(F)(F)F` [Compound 615, (1S,3aR,6aS)-2-(2-((2-(tert-butyl)phenyl)amino)-2-oxoacetyl)-N-((S)-3-oxo-1-((S)-2-oxopyrrolidin-3-yl)-4-(trifluoromethoxy)butan-2-yl)octahydrocyclopenta[c]pyrrole-1-carboxamide], for which the EC50 was less than 0.05 µM.

On to `O=C1NCC[C@H]1C[C@H](NC(=O)[C@@H]1CC2(CC2)CN1C(=O)C(F)(F)c1ccccc1)C(=O)COC(F)(F)F` [Compound 616, (S)-5-(2,2-difluoro-2-phenylacetyl)-N-((S)-3-oxo-1-((S)-2-oxopyrrolidin-3-yl)-4-(trifluoromethoxy)butan-2-yl)-5-azaspiro[2.4]heptane-6-carboxamide], for which the EC50 was less than 0.05 µM.

Consider `CCCCC(=O)N1CC2(CC2)C[C@H]1C(=O)N[C@@H](C[C@@H]1CCNC1=O)C(=O)COC(F)(F)F` [Compound 618, (S)-N-((S)-3-oxo-1-((S)-2-oxopyrrolidin-3-yl)-4-(trifluoromethoxy)butan-2-yl)-5-pentanoyl-5-azaspiro[2.4]heptane-6-carboxamide], for which the EC50 was 0.05 to 0.2 µM.

`CC(C)(C(=O)N1CC2(CC2)C[C@H]1C(=O)N[C@@H](C[C@@H]1CCNC1=O)C(=O)COC(F)(F)F)c1ccccc1` [Compound 619, (S)-5-(2-methyl-2-phenylpropanoyl)-N-((S)-3-oxo-1-((S)-2-oxopyrrolidin-3-yl)-4-(trifluoromethoxy)butan-2-yl)-5-azaspiro[2.4]heptane-6-carboxamide]: the EC50 is less than 0.05 µM.

Take `CC(C)(C)[C@H](NC(=O)OCc1ccccc1)C(=O)N1C[C@H]2[C@@H]([C@H]1C(=O)N[C@@H](C[C@@H]1CCNC1=O)C(=O)COC(F)(F)F)C2(C)C` [Compound 620, benzyl ((S)-1-((1R,2S,5S)-6,6-dimethyl-2-(((S)-3-oxo-1-((S)-2-oxopyrrolidin-3-yl)-4-(trifluoromethoxy)butan-2-yl)carbamoyl)-3-azabicyclo[3.1.0]hexan-3-yl)-3,3-dimethyl-1-oxobutan-2-yl)carbamate]: the EC50 is less than 0.05 µM.

Turning to `COC(C(=O)N1C[C@@H]2CCC[C@@H]2[C@H]1C(=O)N[C@@H](C[C@@H]1CCNC1=O)C(=O)COC(F)(F)F)c1cncc(Cl)n1` (stereo partly drawn) [Compound 621, (1S,3aR,6aS)-2-(2-(6-chloropyrazin-2-yl)-2-methoxyacetyl)-N-((S)-3-oxo-1-((S)-2-oxopyrrolidin-3-yl)-4-(trifluoromethoxy)butan-2-yl)octahydrocyclopenta[c]pyrrole-1-carboxamide], the EC50 was 0.05 to 0.2 µM.

For the compound `CC(C)CC(F)(F)C(=O)N1CC2(CC2)C[C@H]1C(=O)N[C@@H](C[C@@H]1CCNC1=O)C(=O)COC(F)(F)F` [Compound 623, (S)-5-(2,2-difluoro-4-methylpentanoyl)-N-((S)-3-oxo-1-((S)-2-oxopyrrolidin-3-yl)-4-(trifluoromethoxy)butan-2-yl)-5-azaspiro[2.4]heptane-6-carboxamide], the concentration for a half-maximal effect (EC50) was less than 0.05 µM.

Regarding `CC(C)(F)CCC(=O)N1CC2(CC2)C[C@H]1C(=O)N[C@@H](C[C@@H]1CCNC1=O)C(=O)COC(F)(F)F` [Compound 624, (S)-5-(4-fluoro-4-methylpentanoyl)-N-((S)-3-oxo-1-((S)-2-oxopyrrolidin-3-yl)-4-(trifluoromethoxy)butan-2-yl)-5-azaspiro[2.4]heptane-6-carboxamide], the EC50 lay in the range of 0.05 to 0.2 µM.

Turning to `CC(C)CC(C)(C)C(=O)N1CC2(CC2)C[C@H]1C(=O)N[C@@H](C[C@@H]1CCNC1=O)C(=O)COC(F)(F)F` [Compound 625, (S)-N-((S)-3-oxo-1-((S)-2-oxopyrrolidin-3-yl)-4-(trifluoromethoxy)butan-2-yl)-5-(2,2,4-trimethylpentanoyl)-5-azaspiro[2.4]heptane-6-carboxamide], the EC50 is less than 0.05 µM.

For the compound `CCC(=O)O[C@H](CC(C)C)C(=O)N1CC2(CC2)C[C@H]1C(=O)N[C@@H](C[C@@H]1CCNC1=O)C(=O)COC(F)(F)F` [Compound 626, (R)-4-methyl-1-oxo-1-((S)-6-(((S)-3-oxo-l-((S)-2-oxopyrrolidin-3-yl)-4-(trifluoromethoxy)butan-2-yl)carbamoyl)-5-azaspiro[2.4]heptan-5-yl)pentan-2-yl propionate], the EC50 is less than 0.05 µM.

In the case of `O=C1NCC[C@H]1C[C@H](NC(=O)[C@@H]1CC2(CC2)CN1C(=O)C12CC(F)(C1)C2)C(=O)COC(F)(F)F` [Compound 627, (S)-5-(3-fluorobicyclo[1.1.1]pentane-1-carbonyl)-N-((S)-3-oxo-1-((S)-2-oxopyrrolidin-3-yl)-4-(trifluoromethoxy)butan-2-yl)-5-azaspiro[2.4]heptane-6-carboxamide], the EC50 is 0.05 to 0.2 µM.

Turning to `C[C@H](C(=O)N1CC2(CC2)C[C@H]1C(=O)N[C@@H](C[C@@H]1CCNC1=O)C(=O)COC(F)(F)F)c1ccccc1` [Compound 628, (S)-N-((S)-3-oxo-1-((S)-2-oxopyrrolidin-3-yl)-4-(trifluoromethoxy)butan-2-yl)-5-((S)-2-phenylpropanoyl)-5-azaspiro[2.4]heptane-6-carboxamide], the EC50 was 0.05 to 0.2 µM.

Turning to `C[C@H](C(=O)N1C[C@H]2[C@@H]([C@H]1C(=O)N[C@@H](C[C@@H]1CCNC1=O)C(=O)COC(F)(F)F)C2(C)C)c1ccccc1` [Compound 629, (1R,2S,5S)-6,6-dimethyl-N-((S)-3-oxo-1-((S)-2-oxopyrrolidin-3-yl)-4-(trifluoromethoxy)butan-2-yl)-3-((S)-2-phenylpropanoyl)-3-azabicyclo[3.1.0]hexane-2-carboxamide], the EC50 was less than 0.05 µM.

Consider `CC1(C)[C@@H]2[C@@H](C(=O)N[C@@H](C[C@@H]3CCNC3=O)C(=O)COC(F)(F)F)N(C(=O)C3(O)CCC(F)(F)CC3)C[C@@H]21` [Compound 630, (1R,2S,5S)-3-(4,4-difluoro-1-hydroxycyclohexane-1-carbonyl)-6,6-dimethyl-N-((S)-3-oxo-1-((S)-2-oxopyrrolidin-3-yl)-4-(trifluoromethoxy)butan-2-yl)-3-azabicyclo[3.1.0]hexane-2-carboxamide], for which the EC50 was 0.05 to 0.2 µM.

In the case of `CC(C)C[C@@H](OC(=O)C(C)C)C(=O)N1CC2(CC2)C[C@H]1C(=O)N[C@@H](C[C@@H]1CCNC1=O)C(=O)COC(F)(F)F` [Compound 631, (R)-4-methyl-1-oxo-1-((S)-6-(((S)-3-oxo-l-((S)-2-oxopyrrolidin-3-yl)-4-(trifluoromethoxy)butan-2-yl)carbamoyl)-5-azaspiro[2.4]heptan-5-yl)pentan-2-yl isobutyrate], the EC50 lay in the range of 0.2 to 0.5 µM.

In the case of `CC1(C)CCC(O)(C(=O)N2CC3(CC3)C[C@H]2C(=O)N[C@@H](C[C@@H]2CCNC2=O)C(=O)COC(F)(F)F)CC1` [Compound 633, (S)-5-(l-hydroxy-4,4-dimethylcyclohexane-1-carbonyl)-N-((S)-3-oxo-1-((S)-2-oxopyrrolidin-3-yl)-4-(trifluoromethoxy)butan-2-yl)-5-azaspiro[2.4]heptane-6-carboxamide], the concentration for a half-maximal effect (EC50) is less than 0.05 µM.

Turning to `CC(C)C[C@@H](O)C(=O)N1CCCC[C@H]1C(=O)N[C@@H](C[C@@H]1CCNC1=O)C(=O)COC(F)(F)F` [Compound 636, (S)-1-((R)-2-hydroxy-4-methylpentanoyl)-N-((S)-3-oxo-1-((S)-2-oxopyrrolidin-3-yl)-4-(trifluoromethoxy)butan-2-yl)piperidine-2-carboxamide], the half-maximal effective concentration (EC50) lay within 0.05 to 0.2 µM.

Regarding `CC(C)C[C@@H](O)C(=O)N1CC[C@@H](C(C)(C)C)C[C@H]1C(=O)N[C@@H](C[C@@H]1CCNC1=O)C(=O)COC(F)(F)F` [Compound 637, (2S,4R)-4-(tert-butyl)-1-((R)-2-hydroxy-4-methylpentanoyl)-N-((S)-3-oxo-1-((S)-2-oxopyrrolidin-3-yl)-4-(trifluoromethoxy)butan-2-yl)piperidine-2-carboxamide], the EC50 is less than 0.05 µM.

The assay is the same for the next values; noted with them: Severe acute respiratory syndrome coronavirus 2, HeLa-ACE2, 24 h; read-out: EC50, uM (Hela).
With `O=C(Cc1ccccc1)O[C@@H](C(=O)N1C[C@@H]2CCC[C@@H]2[C@H]1C(=O)N[C@@H](C[C@@H]1CCNC1=O)C(=O)COC(F)(F)F)c1ccccc1F` [Compound 622, (R)-1-(2-fluorophenyl)-2-oxo-2-((1S,3aR,6aS)-1-(((S)-3-oxo-1-((S)-2-oxopyrrolidin-3-yl)-4-(trifluoromethoxy)butan-2-yl)carbamoyl)hexahydrocyclopenta[c]-pyrrol-2(1H)-yl)ethyl 2-phenylacetate], the EC50 lay within 0.05 to 0.2 µM.

With `CC(C)C[C@@H](OC(=O)Cc1ccccc1)C(=O)N1CC2(CC2)C[C@H]1C(=O)N[C@@H](C[C@@H]1CCNC1=O)C(=O)COC(F)(F)F` [Compound 632, (R)-4-methyl-1-oxo-1-((S)-6-(((S)-3-oxo-l-((S)-2-oxopyrrolidin-3-yl)-4-(trifluoromethoxy)butan-2-yl)carbamoyl)-5-azaspiro[2.4]heptan-5-yl)pentan-2-yl 2-phenylacetate], the EC50 was less than 0.05 µM.

In the case of `O=C1NCC[C@H]1C[C@H](NC(=O)[C@@H]1CC2(CC2)CN1C(=O)C(F)F)C(=O)COC(F)(F)F` [Compound 635, (S)-5-(2,2-difluoroacetyl)-N-((S)-3-oxo-1-((S)-2-oxopyrrolidin-3-yl)-4-(trifluoromethoxy)butan-2-yl)-5-azaspiro[2.4]heptane-6-carboxamide], the concentration giving a half-maximal response (EC50) was in the range of 0.05 to 0.2 µM.

For the origin of these results see patent US11708348B2, “Protease inhibitors for treatment of coronavirus infections” (The Scripps Research Institute, priority 2021, dated 2023).
